Results taken from patent publication US9155301B2, “Antimicrobial agent comprising a cysteine component covalently bound to a substrate in particular by binding through an S-S bridge via a spacer molecule” (priority 2005, dated 2015).

Test system: Staphylococcus aureus (B5381, a clinical isolate)
Assay: Inhibition of bacterial growth in culture incubated with modified surface
Format: cell-based
Details: Example 11; dissolved in culture at 50 μg/ml and 5 μg/ml; initial culture exceeding 4 million cfu/ml
Experimental: The following analysis was performed with three (3) different strains of bacteria, but the applications are not limited to these: A clinical isolate (from a patient with sepsis) of Gram positive bacterium Staphylococcus aureus, (a clinical isolate B5381), the Gram positive bacterium Bacillus megaterium (strain Bm11), the Gram negative bacterium Escherichia coli (strain D21). This selection of bacteria comprises both Gram positive and Gram negative bacteria including bacteria that are of significant problems clinically.
[…] LB medium (Luria Bertani broth) has been inoculated with specific bacterial strain, but not limited to this medium. The strain selected has been plated on an agar plate of selected medium the day before, and permitted to grow over night at 37° C. Several colonies were scraped from the plate and used to inoculate the medium which subsequently was allowed to grow up to an optical density of 0.4. […] The number of bacteria was determined by plating serial dilutions and counting colonies in the appropriate dilutions. […]
Subsequent to incubation (in the presently described case: 2.5 h), the disc was removed from each tube using a sterile pair of tweezers. The culture in which the disc had been incubated was in parallel transferred to a separate sterile eppendorf tube, and its titer was determined as described. […]

N[C@@H](CS)C(=O)O [dissolved L-cysteine, L-cysteine]
inhibition of growth in culture with dissolved substance: No inhibition
